Activity calls are given as the source filed them.
How the values were obtained:
[1] = luciferase reporter signal suppression in cells – H4 neuroglioma cells, luminescence, dose response (AID 1990); type: functional, cell-based
[2] = alpha-synuclein stem-loop luciferase translation blockers – H4 neuroglioma cells, luminescence, confirmation (AID 1988); type: functional, cell-based
[3] = Luminescence Cell-Based Dose Response HTS to Identify Inhibitors of 5'UTR Stem-Loop Driven Prion Protein mRNA Translation in H4 Neuroglioblastoma Cells. [Related pubchem assays: 1827 (Project Summary), 1813 (Primary HTS)]; type: functional
[4] = biological target: Cytochrome P450 2C9 (Homo sapiens, UniProt P11712)
Cytochrome P450 2C9, sequence (P11712 whole entry): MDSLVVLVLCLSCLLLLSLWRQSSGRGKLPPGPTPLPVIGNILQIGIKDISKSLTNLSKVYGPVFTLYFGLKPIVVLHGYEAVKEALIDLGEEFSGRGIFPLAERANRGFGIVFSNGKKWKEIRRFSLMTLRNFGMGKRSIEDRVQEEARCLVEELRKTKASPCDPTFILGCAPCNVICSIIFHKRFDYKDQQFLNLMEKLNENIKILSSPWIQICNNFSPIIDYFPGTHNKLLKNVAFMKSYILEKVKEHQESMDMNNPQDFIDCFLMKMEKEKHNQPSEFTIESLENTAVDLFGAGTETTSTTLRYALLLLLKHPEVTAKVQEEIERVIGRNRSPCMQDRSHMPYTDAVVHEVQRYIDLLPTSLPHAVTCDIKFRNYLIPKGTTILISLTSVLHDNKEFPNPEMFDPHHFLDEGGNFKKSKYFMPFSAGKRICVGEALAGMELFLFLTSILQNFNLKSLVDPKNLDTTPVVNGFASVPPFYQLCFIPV

[5] = biological target: T1, Cytochrome P450 1A2 (Homo sapiens, UniProt P05177);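 further: PubChem cytochrome P450 panel assay, CYP1A2 panel member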
T1 sequence (P05177 whole entry): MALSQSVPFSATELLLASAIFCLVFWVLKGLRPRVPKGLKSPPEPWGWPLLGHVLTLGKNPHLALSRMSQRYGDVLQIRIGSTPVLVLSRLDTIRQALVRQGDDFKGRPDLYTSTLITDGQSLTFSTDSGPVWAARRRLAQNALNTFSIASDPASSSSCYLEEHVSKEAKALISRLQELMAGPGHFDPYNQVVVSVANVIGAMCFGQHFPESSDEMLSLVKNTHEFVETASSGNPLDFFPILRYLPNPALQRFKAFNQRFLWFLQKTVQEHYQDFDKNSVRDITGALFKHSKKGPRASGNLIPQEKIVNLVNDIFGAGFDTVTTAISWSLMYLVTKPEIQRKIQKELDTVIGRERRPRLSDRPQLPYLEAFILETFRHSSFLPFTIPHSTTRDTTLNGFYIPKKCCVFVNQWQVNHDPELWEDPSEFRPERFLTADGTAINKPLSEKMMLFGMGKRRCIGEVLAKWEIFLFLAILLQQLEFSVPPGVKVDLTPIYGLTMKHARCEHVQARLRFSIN

[6] = biological target: FAD-linked sulfhydryl oxidase ALR (Homo sapiens, UniProt P55789); assay: ALR-catalysed DTT oxidation blockers – biochemical, H2O2 detection, luminescence, cherry-pick, dose response (AID 493248)
FAD-linked sulfhydryl oxidase ALR, sequence (P55789 whole entry): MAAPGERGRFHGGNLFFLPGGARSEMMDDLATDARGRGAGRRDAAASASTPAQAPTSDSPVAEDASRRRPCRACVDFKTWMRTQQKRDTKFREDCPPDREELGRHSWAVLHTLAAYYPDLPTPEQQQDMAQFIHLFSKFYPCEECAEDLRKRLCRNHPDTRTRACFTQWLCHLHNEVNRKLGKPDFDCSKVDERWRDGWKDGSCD

[7] = test system: H9c2; assay: cells; type: functional, cell-based; conditions: Rattus norvegicus, H9c2, Myocardium;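 further: confirmatory concentration-response retest of ultra-high-throughput screening hits for modulation of myocardial damage; cell death induced by hydrogen peroxide oxidative stress; compound pretreatment for 60 min then peroxide exposure for 2 h; potency is for protecting the cells against peroxide damage rather than for killing them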
[8] = viability of uninfected HEp-2 cells – cell-based, HTS, cytotoxicity control for RSV inhibitor project, dose response (AID 2410); type: functional; conditions: human respiratory syncytial virus
[9] = biological target: T2, Corticotropin-releasing factor receptor 2/Corticotropin-releasing factor-binding protein (Homo sapiens, UniProt P24387+Q13324); assay: activators of CRF receptor 2 with binding protein – uHTS hits, confirmation (AID 602473); type: functional; conditions: read-out: EC50_Mean
T2 sequence (Q13324 whole entry): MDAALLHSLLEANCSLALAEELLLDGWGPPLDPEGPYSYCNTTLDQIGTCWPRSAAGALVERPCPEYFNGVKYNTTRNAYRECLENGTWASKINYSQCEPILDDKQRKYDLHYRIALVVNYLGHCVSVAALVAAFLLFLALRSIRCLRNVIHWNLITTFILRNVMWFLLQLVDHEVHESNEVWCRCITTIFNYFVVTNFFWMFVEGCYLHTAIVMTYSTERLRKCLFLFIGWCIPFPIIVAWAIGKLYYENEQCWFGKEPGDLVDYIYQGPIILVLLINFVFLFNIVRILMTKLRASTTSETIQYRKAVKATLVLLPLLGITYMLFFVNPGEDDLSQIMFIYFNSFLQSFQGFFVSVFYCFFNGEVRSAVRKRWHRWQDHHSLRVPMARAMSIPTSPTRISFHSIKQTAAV
T2 sequence (P24387 whole entry): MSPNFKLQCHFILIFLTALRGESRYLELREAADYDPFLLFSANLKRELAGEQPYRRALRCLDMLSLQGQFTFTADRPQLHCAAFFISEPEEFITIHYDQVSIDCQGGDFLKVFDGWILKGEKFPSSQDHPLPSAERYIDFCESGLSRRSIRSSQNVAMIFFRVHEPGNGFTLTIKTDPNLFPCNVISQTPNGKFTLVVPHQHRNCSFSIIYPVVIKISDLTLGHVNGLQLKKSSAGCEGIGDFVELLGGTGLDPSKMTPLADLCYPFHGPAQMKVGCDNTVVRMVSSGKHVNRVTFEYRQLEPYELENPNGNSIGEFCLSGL

[10] = NIH3T3 cell viability loss – ATP luminescence, mouse fibroblasts, counter-screen, dose response (AID 2010); type: functional, cell-based;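 further: cells exposed to compound for about 90 hours before reading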
[11] = Trypanosoma cruzi growth suppression in host cells – NIH3T3 host cells, beta-gal luminescence, confirmation (AID 2044); type: functional, cell-based;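 further: intracellular parasites grown in NIH/3T3 mouse fibroblasts as host cells; luminescent beta-galactosidase reporter signal from transgenic T. cruzi replicating inside host cells; inhibitors lower the luminescence signal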
[12] = biological target: Cytochrome P450 2D6 (Homo sapiens, UniProt P10635);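 further: CYP2D6 member of a cytochrome P450 panel assay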
Cytochrome P450 2D6, sequence (P10635 whole entry): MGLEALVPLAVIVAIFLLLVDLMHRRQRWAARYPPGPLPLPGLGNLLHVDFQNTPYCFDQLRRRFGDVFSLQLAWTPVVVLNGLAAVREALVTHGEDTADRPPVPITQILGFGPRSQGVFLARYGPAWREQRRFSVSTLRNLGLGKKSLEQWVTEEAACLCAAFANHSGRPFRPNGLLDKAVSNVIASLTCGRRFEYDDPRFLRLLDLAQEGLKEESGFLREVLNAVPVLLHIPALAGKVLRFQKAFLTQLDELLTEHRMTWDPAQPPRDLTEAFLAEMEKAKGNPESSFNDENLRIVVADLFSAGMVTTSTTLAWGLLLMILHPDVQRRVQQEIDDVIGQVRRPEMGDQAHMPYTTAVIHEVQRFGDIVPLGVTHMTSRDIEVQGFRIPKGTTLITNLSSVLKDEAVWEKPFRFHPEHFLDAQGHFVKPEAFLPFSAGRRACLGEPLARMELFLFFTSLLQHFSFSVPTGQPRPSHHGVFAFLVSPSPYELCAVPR

[13] = biological target: Cytochrome P450 3A4 (Homo sapiens, UniProt P08684);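 further: CYP3A4 tested as one member of a cytochrome P450 panel screen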
Cytochrome P450 3A4, sequence (P08684 whole entry): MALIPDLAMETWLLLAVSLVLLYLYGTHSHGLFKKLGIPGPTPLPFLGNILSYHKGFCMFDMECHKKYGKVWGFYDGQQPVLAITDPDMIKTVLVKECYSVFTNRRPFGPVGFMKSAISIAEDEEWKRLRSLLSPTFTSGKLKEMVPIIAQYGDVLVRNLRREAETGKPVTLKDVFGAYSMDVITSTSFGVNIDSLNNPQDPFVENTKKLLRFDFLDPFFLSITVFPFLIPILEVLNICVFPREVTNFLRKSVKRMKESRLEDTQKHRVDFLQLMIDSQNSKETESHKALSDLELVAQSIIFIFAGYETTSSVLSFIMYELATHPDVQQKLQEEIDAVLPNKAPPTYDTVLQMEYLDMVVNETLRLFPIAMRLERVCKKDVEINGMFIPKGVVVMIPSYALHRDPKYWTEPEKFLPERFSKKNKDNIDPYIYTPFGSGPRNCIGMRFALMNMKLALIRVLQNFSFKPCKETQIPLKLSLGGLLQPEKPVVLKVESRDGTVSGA

[14] = biological target: Cytochrome P450 2C19 (Homo sapiens, UniProt P33261); assay: Cytochrome panel assay with activity outcomes. Panel member name: p450-cyp2c19 Compounds with AC50 equal or less than 10 uM are considered active; type: functional; conditions: read-out: AC50
Cytochrome P450 2C19, sequence (P33261 whole entry): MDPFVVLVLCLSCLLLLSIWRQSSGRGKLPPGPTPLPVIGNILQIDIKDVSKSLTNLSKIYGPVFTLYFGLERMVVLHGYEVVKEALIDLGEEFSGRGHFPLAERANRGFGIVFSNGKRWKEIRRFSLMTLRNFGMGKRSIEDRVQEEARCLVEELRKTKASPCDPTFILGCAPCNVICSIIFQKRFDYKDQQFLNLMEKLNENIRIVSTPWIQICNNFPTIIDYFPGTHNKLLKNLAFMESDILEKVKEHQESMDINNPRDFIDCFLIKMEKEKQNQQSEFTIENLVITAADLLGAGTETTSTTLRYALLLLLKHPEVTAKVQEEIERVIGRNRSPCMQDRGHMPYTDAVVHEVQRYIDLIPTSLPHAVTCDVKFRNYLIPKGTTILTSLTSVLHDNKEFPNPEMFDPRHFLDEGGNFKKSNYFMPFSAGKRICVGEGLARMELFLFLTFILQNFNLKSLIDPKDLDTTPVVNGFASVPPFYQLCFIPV

[15] = biological target: T3, Heat shock factor protein 1 (Mus musculus, UniProt P38532); assay: enhancement of HSF1-driven luciferase signal – cell-based, NIH3T3, luminescence, dose retest, confirmation (AID 435004); type: functional;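 further: stress induced by proteasome inhibitor MG132 added 30 min after compound; luciferase reporter driven by HSF1 response element in NIH3T3 cells; actives raise luminescence as potentiators of the MG132 stress response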
T3 sequence (P38532 whole entry): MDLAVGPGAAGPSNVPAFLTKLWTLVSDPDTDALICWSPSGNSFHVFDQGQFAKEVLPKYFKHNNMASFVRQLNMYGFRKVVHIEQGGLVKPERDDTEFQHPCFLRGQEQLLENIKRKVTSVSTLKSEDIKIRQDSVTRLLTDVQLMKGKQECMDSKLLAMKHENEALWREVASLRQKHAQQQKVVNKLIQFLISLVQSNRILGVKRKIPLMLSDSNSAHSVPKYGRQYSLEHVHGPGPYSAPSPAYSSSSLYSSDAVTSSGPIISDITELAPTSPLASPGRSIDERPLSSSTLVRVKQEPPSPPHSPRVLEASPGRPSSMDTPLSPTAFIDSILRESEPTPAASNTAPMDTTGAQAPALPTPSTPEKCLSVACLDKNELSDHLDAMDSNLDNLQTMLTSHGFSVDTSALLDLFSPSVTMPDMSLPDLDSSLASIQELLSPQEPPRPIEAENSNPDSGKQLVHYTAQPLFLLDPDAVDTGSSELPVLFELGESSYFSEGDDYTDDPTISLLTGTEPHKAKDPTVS

O=S(=O)(c1ccc(Br)cc1)N1CCC(c2nc3ccccc3[nH]2)CC1
EC50 [1]: 11.9 µM (active)
EC50 [2]: > 120 µM (not active)

COc1ccc(CCNS(=O)(=O)c2cn(C)cn2)cc1OC
EC50 [3]: > 120 µM (not active)
EC50 [1]: > 120 µM (not active)
EC50 [2]: > 120 µM (not active)

Cc1nnc(NC(=O)c2cccc(NC(=O)C(C)C)c2)s1
AC50 [4]: 25.1 µM (inconclusive)
AC50 [5]: 39.8 µM (inconclusive)

O=C(NCCSc1c[nH]c2ccccc12)C1CC1
AC50 [6]: 8.01 µM (active)

CC(C)(C)OC(=O)CNC(=O)c1[nH]cnc1C(=O)NC(c1ccccc1)c1ccccc1
IC50 [7]: > 79 µM (inactive)

CCN(CC)C(=O)CSc1nc(O)c2ccccc2n1
IC50 [7]: > 79 µM (inactive)

CCCCNC(=O)c1onc(CSc2ccc(C)c(C)c2)c1C(=O)O
AC50 [6]: 8.26 µM (active)

O=C(C[N+]1=C2SC=C(c3ccccc3)N2CC1)c1ccc(Br)cc1
AC50 [6]: 0.221 µM (active)

COc1cc(/C=C/c2n[nH]c(-c3ccccc3O)n2)cc(OC)c1OC
IC50 [7]: > 79 µM (inactive)

CN(C(=O)COC(=O)c1c2c(nc3ccccc13)/C(=C/c1cccc([N+](=O)[O-])c1)CCC2)C1CCS(=O)(=O)C1 (stereo not given)
EC50 [3]: > 120 µM (not active)
EC50 [1]: 11.6 µM (active)
EC50 [2]: 11 µM (active)

O=S(=O)(NNc1ccc(F)cc1F)c1cccc(Cl)c1
AC50 [6]: 1.35 µM (active)

CCC1Nc2ncnc(N3CCN(c4ccccc4)CC3)c2N(Cc2ccc(Cl)cc2)C1=O (stereo not given)
CC50 [8]: 16.6 µM (active)

COc1ccc2cc3cc(C(=O)Nc4cc(OC)c(OC)c(OC)c4)oc3nc2c1
IC50 [7]: > 79 µM (inactive)

COc1ccc(-c2c(-c3ccsc3)oc(=O)c3cc(OC)c(OC)cc23)cc1
CC50 [8]: 47.2 µM (active)

CN(C)Cc1ccccc1Sc1ccc2c(c1)CCCC2
EC50 [3]: 32.4 µM (active)
EC50 [1]: > 120 µM (not active)
EC50 [2]: > 120 µM (not active)

Brc1ccccc1OCCCOc1cccc2cccnc12
CC50 [8]: 26.3 µM (active)

CCOc1ccc(C2C=C(c3ccc(C)cc3)Nc3nnnn32)cc1 (stereo not given)
EC50 [9]: > 53 µM (inactive)

Cc1cccc(N2CCN(C(=O)CCCn3c(=S)[nH]c4cc5c(cc4c3=O)OCO5)CC2)c1C
EC50 [10]: > 30 µM (not active)
EC50 [11]: 0.389 µM (active)
AC50 [12]: 10 µM (inconclusive)
CC50 [8]: 23.4 µM (active)

CCNc1ncc2nc(-c3ccccc3)c(=O)n(CCc3ccccc3)c2n1
AC50 [4]: 1.26 µM (inconclusive)
AC50 [5]: 12.6 µM (inconclusive)
AC50 [13]: 15.8 µM (inconclusive)

CC1(c2ccccc2)NC(=O)N(CC(=O)Nc2cccc(/C=C/c3ccccn3)c2)C1=O (stereo not given)
IC50 [7]: > 79 µM (inactive)

COC(=O)[C@@]1(Cc2ccc(F)cc2)[C@H]2c3cc(C(=O)N(C)C)n(C)c3C[C@H]2CN1C(=O)c1ccccc1
AC50 [5]: 31.6 µM (inconclusive)
AC50 [14]: 25.1 µM (inconclusive)

CN(C)c1cc(=O)n2c(n1)SCCC2
AC50 [5]: 12.6 µM (inconclusive)
AC50 [14]: 28.2 µM (inconclusive)

COc1ccc(-n2c(=O)c(CCc3ccccc3)nc3cncnc32)cc1
AC50 [4]: 20 µM (inconclusive)
AC50 [5]: 25.1 µM (inconclusive)

COc1ccccc1NC(=O)Nc1ncccc1C
AC50 [6]: 0.903 µM (active)

CC(=O)N1CCC2(CC1)NC(=O)N(c1ccccc1)N2
AC50 [6]: 5 µM (active)
EC50 [15]: 136 µM (active)

CCC(C)c1ccc(NC(S)=NCCn2cc(Br)cn2)cc1 (stereo not given)
EC50 [3]: > 120 µM (not active)
EC50 [1]: > 120 µM (not active)
EC50 [2]: > 120 µM (not active)

CCc1c(C)nc(Nc2nc(C)c3ccc(OC)cc3n2)nc1O
IC50 [7]: > 79 µM (inactive)

Cc1cc(OCC(=O)N2CCOCC2)cc2oc(=O)c3ccccc3c12
IC50 [7]: > 79 µM (inactive)

Cc1ccc2nc(NC(=O)[C@H](C)N3C(=O)C4CC=CCC4C3=O)sc2c1 (stereo not given in full)
EC50 [3]: > 120 µM (not active)
EC50 [1]: 0.556 µM (inconclusive)

COc1ccc(C(=O)[C@H]2[C@H]3C(=O)N(c4ccccc4)C(=O)[C@H]3C3C=CC=NN32)cc1 (stereo not given in full)
EC50 [3]: > 120 µM (not active)
EC50 [1]: > 120 µM (not active)
EC50 [2]: > 120 µM (not active)

Cc1cccc2c(=O)cc(C)n(CC(N)=O)c12
CC50 [8]: 24.6 µM (active)

Cc1cc(C)nc(SCc2cccc(C(=O)O)c2)n1
EC50 [1]: 17.5 µM (active)
EC50 [2]: 28.8 µM (active)

C(=C\c1nnc2c3ccccc3ncn12)/c1ccccc1
EC50 [3]: 7.36 µM (active)

CCCC(=O)NC(Nc1ccccc1F)C(Cl)(Cl)Cl (stereo not given)
AC50 [5]: 22.4 µM (inconclusive)
AC50 [13]: 14.1 µM (inconclusive)

Brc1ccc(CN2CCN(c3ccccc3)CC2)o1
AC50 [6]: 2.03 µM (active)

CN(C(=O)CSc1nc(O)c2c(n1)CCCC2)C1CCCCC1
IC50 [7]: 33.3 µM (inactive)

CCN(CC(=O)Nc1ccc(OC)cc1)C(=O)c1cc(-c2cccs2)nn1-c1ccccc1
IC50 [7]: 36.6 µM (inactive)

FC(F)(F)c1cccc(-c2ccn3ncnc3n2)c1
CC50 [8]: 35.5 µM (active)

O=C(Nc1ccccc1)c1ccc(-c2ccc(Br)cc2)o1
CC50 [8]: 16.9 µM (active)

O=C(c1ccc(F)cc1)C1CCN(C(S)=Nc2ccccc2)CC1
AC50 [5]: 12.6 µM (inconclusive)
AC50 [12]: 14.1 µM (inconclusive)
AC50 [14]: 7.08 µM (inconclusive)

COc1cc(-c2cc3nc(NCCc4ccc(S(N)(=O)=O)cc4)ccn3n2)cc(OC)c1OC
IC50 [7]: > 79 µM (inactive)

CC(=O)OCc1nc(O)c2c(C)c(C)sc2n1
IC50 [7]: > 79 µM (inactive)

CN1CCN(/N=C/c2nc(-c3cccc([N+](=O)[O-])c3)n3ccccc23)CC1
EC50 [9]: > 53 µM (inactive)

Cc1cc(/C=N/NC(=O)c2c(Br)cnn2C)c(C)n1-c1cccc(Br)c1
CC50 [8]: 41.5 µM (active)

C=CCOc1ccc(/C=N/NC(=O)c2cc3c(OC)cc(OC)cc3[nH]2)cc1
CC50 [8]: 27.4 µM (active)

Cc1ccc(/N=C2\C(Cl)=C(O)OC2OC(C)C)c(C)c1 (stereo not given)
EC50 [3]: 24.8 µM (active)
EC50 [1]: > 120 µM (not active)
EC50 [2]: > 120 µM (not active)

O=c1[nH]nc(Cc2ccccc2)c2ccccc12
IC50 [7]: > 79 µM (inactive)

From ChEMBL document CHEMBL1201862, “PubChem BioAssay data set” (2004)
